# Test results taken from patent publication US20240199626A1, “COMPOUNDS WITH IMPROVED CARDIAC SAFETY FOR THE TREATMENT OF CANCER AND NEURODEGENERATIVE DISORDERS” (priority 2021, published 2024).
# Like-named read-outs stand apart in the source and are kept apart here.
# What was measured:
# hiPSC-CMs = assay: Cardiotoxicity assay in hiPSC-CMs (voltage transients, arrhythmia, contractility)
# Procedure: iPSC-CMs: Human fibroblasts were reprogrammed to induced pluripotent stem cells (iPSCs) using Sendai viral vectors. All protocols were approved by the Stanford University Institutional Review Board. The obtained hiPSC clones were cultured in E8 cell culture media (Life Technologies) in plates coated growth factor-reduced Matrigel (Corning) until at least passage 20 before differentiation. hiPSC cells were differentiated into cardiomyocytes (CMs) utilizing a chemically defined cardiomyocyte differentiation protocol^55 and fatty acid rich maturation protocol.^56
# hiPSC-CMs were plated on Matrigel coated 384-well plates at 20,000 cells per well (Greiner μClear) in 50 μl cardiomyocyte media (RMPI, B27) supplemented with 10% knock-out replacement serum. The subsequent day an additional 50 μl of media was added and cells were grown for a minimum of 5 days prior to analysis. Action potential kinetics and contractility was measured on the same cells sequentially. First, action potential kinetics were recorded using the protocol as established by Mckeithan et al.^58 Briefly, the cells were washed 5 times with FluoroBrite, loaded with VF2.1.CI dye for 50 min at 37° C., and washed again 5 times with FluoroBrite. Voltage time series were acquired at a frequency of 33 Hz for a duration of 10 s on the IC200 Kinetic Imaging Platform (Vala Sciences). […] The resulting recordings were subsequently analyzed using Vala Sciences and custom software, action potential kinetics, action potential durations and rates,^58 or contractile activity parameters (peak divergence, area under the curve) were used as measures of cardiotoxicity.^59
# K-562 cells = assay: Cell viability / growth inhibition (AlamarBlue), K-562; assay type: cell-based; conditions: Homo sapiens
# Procedure: (§1) K562 and K562-T315I: The Leukemia cell lines K562 were purchased and maintained as recommended by ATCC (Manassas, VA, USA). Briefly, K562 cells were cultured in suspension in RPMI1640 (ThermoFisher Scientific, USA) supplemented with 10% fetal bovine serum and Pen/Strep/L-Glutamine. […] Briefly, one million K562 cells were seeded in 6-well plates and transfected with Lipofectamine 2000 and 1 μg of CRISPR/Cas9 vector (pSpCas9(BB)-2A-GFP) incorporating the guide sequence ([…]), and Lipofectamine RNAiMax and 4 μg of ssDNA donors (1ug of each donor, Supplementary Table 1) for each well of a 6-well plate.
# (§2) The effects of the compounds on cell viability were evaluated using the AlamarBlue assay using the NCI60 methodology.^57 Cells were harvested and plated in 384-well plates (Greiner μClear) at a concentration of 1250 cells/well in 40 μL, and incubated for 24 h at 37° C. The next day, test compounds were added to the cells as a 2×40μL solution, and incubated for 48 h at 37° C.
# [1] = Serum cardiac troponin levels in treated mice; conditions: 30 mg/kg daily by oral gavage; indication of cardiac damage
# HEK cells = assay: HEK cell growth inhibition
# [2] = system: K-562-T315I cells (K-562 cells expressing BCR-ABL^T315I); assay: Cell viability / growth inhibition (AlamarBlue), K-562-T315I; assay type: cell-based; conditions: Homo sapiens, K562, read-out: Cell Inhibition IC50 K-562-T315I
# Procedure: as §1, §2
# [3] = K562, Table 5, ± SD, read-out: Cell Inhibition IC50 K562
structure (smiles),measurement,setting,value
O=C(Nc1ccc(OC(F)(F)Cl)cc1)c1cnc(N2CC[C@@H](O)C2)c(-c2ccn[nH]2)c1 [Asciminib],Cardiotoxicity (overall maximum toxic dose),hiPSC-CMs; Table 5,4.81 µM
"Cc1ccc(C(=O)N2CCN(C)CC2)cc1C#Cc1cnc2cccnn12 [Compound 10a, (3-(imidazo[1,2-b]pyridazin-3-ylethynyl)-4-methylphenyl)(4-methylpiperazin-1-yl)methanone]",Cardiotoxicity (overall maximum toxic dose),hiPSC-CMs; Table 3,>10 µM
"C#Cc1cc(C(=O)Nc2cc(-n3cnc(C)c3)cc(C(F)(F)F)c2)ccc1C [Compound 26, 3-ethynyl-4-methyl-N-(3-(4-methyl-1H-imidazol-1-yl)-5-(trifluoromethyl)phenyl)benzamide]",Cardiotoxicity (overall maximum toxic dose),hiPSC-CMs; Table 4,>10 µM
Cc1ccc(C(=O)Nc2ccc(CN3CCN(C)CC3)c(C(F)(F)F)c2)cc1C#Cc1cnc2cccnn12 [Ponatinib],IC50,"K-562 cells; K562, read-out: Cell Inhibition IC50 K562",0.5 nM
same,effect on cardiomyocyte contractility (peak contraction amplitude),"hiPSC-CMs; FIGS. 3D, 3E, hiPSC-CMs from two healthy donors",potently suppresses cardiomyocyte contractility
same,Cardiotoxicity (overall maximum toxic dose),hiPSC-CMs; Table 5,0.47 µM
same,serum cardiac troponin levels,[1],increased troponin levels
same,inhibition of growth of healthy HEK cells at,HEK cells,1.1 µM
"Cc1ccc(C(=O)Nc2ccc(CN3CCN(C)CC3)c(C(F)(F)F)c2)cc1 [Compound 21a, 4-methyl-N-(4-((4-methylpiperazin-1-yl)methyl)-3-(trifluoromethyl)phenyl)benzamide]",concentration at which cardiotoxicity was observed / cardiac-safe up to,hiPSC-CMs,1.45 µM
same,Cardiotoxicity (overall maximum toxic dose),hiPSC-CMs; Table 4,1.45 µM
Cc1nc(Nc2ncc(C(=O)Nc3c(C)cccc3Cl)s2)cc(N2CCN(CCO)CC2)n1 [Dasatinib],IC50,K-562 cells; [3],0.4 nM
same,Cardiotoxicity (overall maximum toxic dose),hiPSC-CMs; Table 5,>10 µM
Cc1cn(-c2cc(NC(=O)c3ccc(C)c(Nc4nccc(-c5cccnc5)n4)c3)cc(C(F)(F)F)c2)cn1 [Nilotinib],IC50,K-562 cells; [3],26 nM
same,Cardiotoxicity (overall maximum toxic dose),hiPSC-CMs; Table 5,1.12 µM
same,IC50,[2],> 10000 nM
"C#Cc1cc(C(=O)Nc2ccc(CN3CCN(C)CC3)c(C(F)(F)F)c2)ccc1OC [Compound 29, 3-ethynyl-4-methoxy-N-(4-((4-methylpiperazin-1-yl)methyl)-3-(trifluoromethyl)phenyl)benzamide]",concentration at which cardiotoxicity was observed / cardiac-safe up to,hiPSC-CMs,1.34 µM
same,Cardiotoxicity (overall maximum toxic dose),hiPSC-CMs; Table 4,1.34 µM
"Cc1nccc(Nc2ncc(C(=O)Nc3c(C)cccc3Cl)s2)n1 [Compound 3b, N-(2-chloro-6-methylphenyl)-2-((2-methylpyrimidin-4-yl)amino) thiazole-5-carboxamide]",Cardiotoxicity (overall maximum toxic dose),hiPSC-CMs; Table 1,>10 µM
"C#Cc1cc(C(=O)Nc2ccc(CN3CCN(C)CC3)c(C(F)(F)F)c2)ccc1C [Compound 19, 3-ethynyl-4-methyl-N-(4-((4-methylpiperazin-1-yl)methyl)-3-(trifluoromethyl)phenyl) benzamide]",Cardiotoxicity (overall maximum toxic dose),hiPSC-CMs; Table 4,1.13 µM
